Assay results reported in US20050137807A1, “Method of visualization of the ADME properties of chemical substances” (priority 2003, published 2005).
≈ marks a conversion by molar mass, not a printed value.

Assays:
[1] = cited from earlier work
[2] = cited from earlier work; remark: listed apart in the source
[3] = water solubility, from the literature; cited from earlier work
[4] = membrane affinity as a measure of the lipophilicity (TRANSIL technology); type: physicochemical
human serum albumin = human serum albumin (Homo sapiens, UniProt P02768); test: binding constant to human serum albumin (TRANSIL technology)
Sequence of human serum albumin (P02768 25-609): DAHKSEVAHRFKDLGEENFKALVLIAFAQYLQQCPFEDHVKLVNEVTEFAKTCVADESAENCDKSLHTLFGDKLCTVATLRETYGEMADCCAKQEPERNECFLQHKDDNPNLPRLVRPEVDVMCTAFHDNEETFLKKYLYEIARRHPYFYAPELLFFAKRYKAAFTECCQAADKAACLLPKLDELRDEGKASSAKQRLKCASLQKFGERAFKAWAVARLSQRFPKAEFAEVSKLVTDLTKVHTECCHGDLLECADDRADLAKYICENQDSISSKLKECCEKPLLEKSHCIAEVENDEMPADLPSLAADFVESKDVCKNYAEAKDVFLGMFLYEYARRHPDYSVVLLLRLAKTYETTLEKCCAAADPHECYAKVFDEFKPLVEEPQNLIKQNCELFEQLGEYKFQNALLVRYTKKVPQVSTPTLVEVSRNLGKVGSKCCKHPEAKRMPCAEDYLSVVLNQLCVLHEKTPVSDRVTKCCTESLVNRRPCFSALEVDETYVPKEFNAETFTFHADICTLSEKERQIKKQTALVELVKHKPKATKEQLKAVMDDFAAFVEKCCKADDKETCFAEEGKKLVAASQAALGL
Description: The effective molecular weight (MW) is obtained simply from the respective empirical formula of the substance. The waters solubilities and the typical administered dosages of these commercially available products are furthermore known from the literature.
The ADME maps in FIGS. 5 to 10 show by way of example a selection of commercially available pharmaceutical substances. The substance names and the associated experimental measurement values for their physicochemical properties are summarised in Table 1.

[5] = log binding constant to human serum albumin, TRANSIL

Row | Compound | logP [1] | pKa [2] | Solubility [3] [µg/mL] | LogMA [4] | LogHSA (human serum albumin; human) | LogHSA (human serum albumin; [5])
1 | O=C(O)COc1ccc(Cl)cc1Cl [2,4-D] | 2.58 | 2.73 | – | – | – | –
2 | C=CCc1ccccc1OCC(O)CNC(C)C (centres unmarked) [Alprenolol] | – | – | 547 (≈ 2190 µM) | 2.699 | – | –
3 | CC(C)(O/N=C(\C(=O)N[C@@H]1C(=O)N2C(C(=O)[O-])=C(C[n+]3ccccc3)CS[C@H]12)c1csc(N)n1)C(=O)O [Ceftazidime] | – | – | >500 | 1.000 | −2.495 | –
4 | CO/N=C(\C(=O)N[C@@H]1C(=O)N2C(C(=O)O)=C(CSc3nc(=O)c(=O)[nH]n3C)CS[C@H]12)c1csc(N)n1 [Ceftriaxone] | – | – | 958 (≈ 1730 µM) | 0.903 | −3.585 | –
5 | CO/N=C(\C(=O)N[C@@H]1C(=O)N2C(C(=O)O)=C(COC(N)=O)CS[C@H]12)c1ccco1 [Cefuroxime] | – | – | 145 (≈ 342 µM) | 0.477 | −2.553 | –
6 | C[C@]12C[C@H](O)[C@H]3[C@@H](CCC4=CC(=O)CC[C@@]43C)[C@@H]1CC[C@@H]2C(=O)CO [Corticosterone] | – | – | 143 (≈ 413 µM) | 2.531 | – | –
7 | CNCCCN1c2ccccc2CCc2ccccc21 [Despiramine] | – | – | 0.99 (≈ 3.72 µM) | – | – | −3.398
8 | C[C@@H]1C[C@H]2[C@@H]3CCC4=CC(=O)C=C[C@]4(C)[C@@]3(F)[C@@H](O)C[C@]2(C)[C@@]1(O)C(=O)CO [Dexamethasone] | – | – | 93 (≈ 237 µM) | – | – | –
9 | COc1cccc2c1C(=O)c1c(O)c3c(c(O)c1C2=O)C[C@@](O)(C(=O)CO)C[C@@H]3O[C@H]1C[C@H](N)[C@H](O)[C@H](C)O1 [Doxorubicin] | – | – | 93 (≈ 171 µM) | 2.322 | – | −1.886
10 | CCn1cc(C(=O)O)c(=O)c2cc(F)c(N3CCNCC3)nc21 [Enoxacin] | – | – | 34300 (≈ 107000 µM) | 0.954 | −2.278 | –
11 | OC(Cn1cncn1)(Cn1cncn1)c1ccc(F)cc1F [Fluconazole] | – | – | 1086 (≈ 3550 µM) | – | – | –
12 | CN1C(=O)CN=C(c2ccccc2F)c2cc([N+](=O)[O-])ccc21 [Flunitrazepam] | – | – | 72.8 (≈ 232 µM) | 2.477 | – | –
13 | N=C(N)N/N=C/c1c(Cl)cccc1Cl [Guanabenz] | – | – | 1055 (≈ 4570 µM) | 0.602 | −3.745 | –
14 | CN(C)CCCN1c2ccccc2CCc2ccccc21 [Imipramine] | – | – | 1 (≈ 3.57 µM) | 3.190 | −3.301 | –
15 | COC(=O)C1=C(C)NC(C)=C(C(=O)OC(C)C)C1c1cccc2nonc12 (centres unmarked) [Isradipin] | – | – | 49 (≈ 132 µM) | 3.699 | – | −4.301
16 | CC(CCc1ccccc1)NCC(O)c1ccc(O)c(C(N)=O)c1 (centres unmarked) [Labetalol] | – | – | 73 (≈ 222 µM) | 3.620 | – | –
17 | Cc1cc(Cl)ccc1OCC(=O)O [MCPA] | 2.75 | 3.07 | – | – | – | –
18 | CN(Cc1cnc2nc(N)nc(N)c2n1)c1ccc(C(=O)N[C@@H](CCC(=O)O)C(=O)O)cc1 [Metotrexate] | – | – | 26000 (≈ 57200 µM) | 1.176 | – | −3.796
19 | CCN(CC)CCNC(=O)c1ccc(NC(C)=O)cc1 [N-Acetylprocainamide] | – | – | >1000 | 1.176 | – | −2.268
20 | CC(C)(C)NCC(O)COc1cccc2c1CC(O)C(O)C2 (centres unmarked) [Nadolol] | – | – | 22400 (≈ 72400 µM) | 0.602 | – | –
21 | COC(=O)C1=C(C)NC(C)=C(C(=O)OCC(C)C)C1c1ccccc1[N+](=O)[O-] (centres unmarked) [Nisoldipine] | – | – | 25 (≈ 64.4 µM) | – | −5.319 | –
22 | CCOC(=O)C1=C(C)NC(C)=C(C(=O)OC)C1c1cccc([N+](=O)[O-])c1 (centres unmarked) [Nitrendipine] | – | – | 77 (≈ 214 µM) | – | −4.824 | –
23 | Cc1nccn1CC1CCc2c(c3ccccc3n2C)C1=O (centres unmarked) [Ondansetron] | – | – | 5.7 (≈ 19.4 µM) | 2.672 | −3.237 | –
24 | CC1(C)S[C@@H]2[C@H](NC(=O)Cc3ccccc3)C(=O)N2[C@H]1C(=O)O [Penicilin G] | – | – | 50 (≈ 150 µM) | 1.041 | – | −4.301

Row | Compound | logP [1] | pKa [2] | Solubility [3] [µg/mL] | LogMA [4] | LogHSA (human serum albumin; human) | LogHSA (human serum albumin; [5])
25 | O=C1NC(=O)C(c2ccccc2)(c2ccccc2)N1 [Phenytoin] | – | – | 1267 (≈ 5020 µM) | 2.778 | −3.639 | –
26 | CN1C(C(=O)Nc2ccccn2)=C(O)c2ccccc2S1(=O)=O [Piroxicam] | – | – | 521 (≈ 1570 µM) | 2.079 | −5.301 | –
27 | CCCN(CCC)S(=O)(=O)c1ccc(C(=O)O)cc1 [Probenecid] | – | – | 27.1 (≈ 95 µM) | 1.322 | −4.004 | –
28 | CC(C)NCC(O)COc1cccc2ccccc12 (centres unmarked) [Propranolol] | – | – | 609 (≈ 2350 µM) | 3.146 | −4.028 | –
29 | NC(=O)N1C(=O)/C(=C(\O)c2cccs2)c2cc(Cl)ccc21 [Tenidap] | – | – | 2676 (≈ 8340 µM) | – | – | –
30 | COc1cc2nc(N3CCN(C(=O)C4CCCO4)CC3)nc(N)c2cc1OC (centres unmarked) [Terazosin] | – | – | 205 (≈ 529 µM) | 1.785 | – | –
31 | CC(C)(C)NCC(O)c1cc(O)cc(O)c1 (centres unmarked) [Terbutaline] | – | – | 212800 (≈ 945000 µM) | 0.845 | −2.398 | –
32 | C[C@]12CC[C@H]3[C@@H](CCC4=CC(=O)CC[C@@]43C)[C@@H]1CC[C@@H]2O [Testosteron] | – | – | 68 (≈ 236 µM) | 2.826 | – | −4.912
33 | Cn1c(=O)c2[nH]cnc2n(C)c1=O [Theophiline] | – | – | 2800 (≈ 15500 µM) | 0.886 | – | –
34 | CC(C)(C)NC[C@H](O)COc1nsnc1N1CCOCC1 [Timolol] | – | – | 2741 (≈ 8660 µM) | 1.477 | −2.000 | –
35 | CCCCNC(=O)NS(=O)(=O)c1ccc(C)cc1 [Tolbutamid] | – | – | 109 (≈ 403 µM) | – | – | –
36 | OC(CCN1CCCCC1)(c1ccccc1)C1CCCCC1 (centres unmarked) [Trihexylphenidyl] | – | – | – | 2.415 | – | −3.006
37 | CCCC(CCC)C(=O)O [Valproic acid] | – | – | 895 (≈ 6210 µM) | 1.041 | −3.921 | –
38 | COc1cc(OC)nc(NC(=O)NS(=O)(=O)N(C)S(C)(=O)=O)n1 [amidosulfuron] | 1.63 | 3.58 | – | – | – | –
39 | COc1cc(OC)nc(NC(=O)NS(=O)(=O)Cc2ccccc2C(=O)O)n1 [bensulfuron] | 0.62 | 5.2 | – | – | – | –
40 | COC(=O)c1cc(Oc2ccc(Cl)cc2Cl)ccc1[N+](=O)[O-] [bifenox] | 4.5 | 13.8 | – | – | – | –
41 | CCC(C)n1c(=O)[nH]c(C)c(Br)c1=O (centres unmarked) [bromacil] | 1.88 | 9.27 | – | – | – | –
42 | CCOC(=O)c1ccccc1S(=O)(=O)NC(=O)Nc1nc(Cl)cc(OC)n1 [chlorimuron-ethyl] | 2.7 | 4.2 | – | – | – | –
43 | COc1cc(Cl)nc(NC(=O)NS(=O)(=O)c2ccccc2C(=O)O)n1 [chlorimuron] | 0.11 | 4.2 | – | – | – | –
44 | C[C@@H](Oc1ccc(Cl)cc1Cl)C(=O)O [dichlorprop-P] | – | 3.67 | – | – | – | –
45 | CC(Oc1ccc(Oc2ccc(Cl)cc2Cl)cc1)C(=O)O (centres unmarked) [diclofop] | 4.5 | 3.43 | – | – | – | –
46 | CN(C)C(=O)Nc1ccc(Cl)c(Cl)c1 [diuron] | 2.85 | 13.8 | – | – | – | –
47 | Clomipramin | – | – | 0.294 | 4.104 | – | −2.796
48 | Oxacepam | – | – | 179 | 2.342 | – | −4.000
